Source: paper PMC3726769 (PLoS ONE, 2013)
Like-named read-outs stand apart in the source and are kept apart here.

Legend:
α2 I E318W [1] = type: binding, human
α2 I E318W [2] = type: binding, human; remark: listed apart in the source
Experimental: (§1) I domain adhesion was determined colorimetrically using a solid-phase binding assay, modified slightly from our previous studies, [16], [32] and specified below. Wells were coated using 1 μg peptide in 100 μl 0.01 M acetic acid for 1 h at 22°C on Immulon-2 HB 96-well plates (Thermo Life Sciences, Basingstoke, UK), and blocked for 1 h with 200 μl of TBS containing 50 mg/ml bovine serum albumin). Wells were washed four times with 200 μl of the adhesion buffer (TBS with 1 mg/ml bovine serum albumin) before adding 100 μl of adhesion buffer containing 10 μg/ml of recombinant GST I domains in the presence of either 2 mM MgCl2 or EDTA for 1 h at room temperature. Wells were washed five times with 200 μl of adhesion buffer containing MgCl2, before adding 100 μl of adhesion buffer containing Amersham anti-GST-HRP conjugate (RPN1236; GE Healthcare) at 1:10,000 dilution for 1 h at room temperature. After washing, colour was developed using an ImmunoPure TMB Substrate Kit (Pierce) according to the manufacturer’s instructions. Replacing Mg^2+ with EDTA abolished binding (not shown). Data for short peptide binding were compared using 2-way ANOVA to establish the overall effect of the E318W mutation, and using repeated measures 1-way ANOVA for specific comparisons (Prism 5.0 for Mac, GraphPad).

wild-type α2 I domain [3] = assay: Solid-phase binding assay of GST I domain to immobilised triple-helical peptides; parameters: species or system human; conditions: 1 μg peptide coated per well; 10 μg/ml GST I domain, 2 mM MgCl2; six paired experiments in triplicate (Fig. 2A)
Experimental: as §1

[4] = target: collagen-like triple-helical peptide [GPO]2GFOGER[GPO]3; assay: SEC; analytical SEC on Superdex 200 10/300 GL at 4°C, 100 mM Tris-HCl pH 7.5, 150 mM NaCl, 2 mM MgCl2; I domain 1 mg/ml with a greater than 2-fold molar excess of peptide, 30 min at 4°C before injection
α2 I E318W [5] = assay: Analytical size exclusion chromatography of I domain-collagen peptide complexes; type: binding, human
Experimental: The lyophilised triple-helical peptides (GFOGER, GMOGER, GAOGER) were dissolved in 500 μl of 1 mg/ml stock solutions of either wild-type or E318W α2 I domains. The amount of peptide was chosen so as to yield a greater than 2-fold molar excess of peptide. After incubation for 30 min at 4°C, the solutions were injected onto a Superdex 200 10/300 GL column and run at 4°C at a flow rate of 0.5 ml/min in SEC buffer.

wild-type α2 I domain [6] = assay: as above; type: binding, human
Experimental: After incubation for 30 min at 4°C, the solutions were injected onto a Superdex 200 10/300 GL column and run at 4°C at a flow rate of 0.5 ml/min in SEC buffer.

[7] = target: T1, collagen-like triple-helical peptide [GPO]2GMOGER[GPO]3 (O denotes hydroxyproline; C-terminal amide); assay: SEC; analytical SEC on Superdex 200 10/300 GL at 4°C, 100 mM Tris-HCl pH 7.5, 150 mM NaCl, 2 mM MgCl2; I domain 1 mg/ml with a greater than 2-fold molar excess of peptide, 30 min at 4°C before injection; conditions: both partners purified
T1 chain: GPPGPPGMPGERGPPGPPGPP

[8] = 1 μg peptide coated per well, 10 μg/ml GST I domain, 2 mM MgCl2, six paired experiments in triplicate (Fig. 2A)
[9] = solid-phase binding, shorter triple-helical peptides, A450, six paired experiments (Fig. 2A), ANOVA p<0.001
[10] = SEC, Superdex 200, 4°C, peptide in >2-fold molar excess (Fig. 3)
[11] = SEC, Superdex 200, 4°C, peptide in >2-fold molar excess, 1 mg/ml I domain, 30 min incubation at 4°C, 100 mM Tris-HCl pH 7.5, 150 mM NaCl, 2 mM MgCl2

GAOGER
Change in affinity of E318W compared with wild-type, increasing dose of I domain (α2 I E318W [1]): substantially greater increase in affinity

GASGER
Change in binding of α2 I E318W compared with wild-type α2 I domain (α2 I E318W [2]): several-fold increases

GFOGEK
Binding of α2 I E318W to shorter triple-helical Gxx'GEx'' peptides (A450) (α2 I E318W [2]): bound well
Binding of wild-type α2 I domain to shorter triple-helical Gxx'GEx'' peptides (A450) (wild-type α2 I domain [3]): bound well

GFOGER [positive control]
Binding of α2 I E318W to shorter triple-helical Gxx'GEx'' peptides (A450) (α2 I E318W [2]; [8]): bound well
Change in affinity of E318W compared with wild-type, increasing dose of I domain (α2 I E318W [1]; increasing concentrations of I domain on peptide coatings, single-site binding curves, 3 replicates in a single experiment (Fig. 2B)): modest increase in affinity
Binding of wild-type α2 I domain to shorter triple-helical Gxx'GEx'' peptides (A450) (wild-type α2 I domain [3]): bound well

GFPGER
Binding of α2 I E318W to shorter triple-helical Gxx'GEx'' peptides (A450) (α2 I E318W [2]): bound well
Change in binding of α2 I E318W compared with wild-type α2 I domain (α2 I E318W [2]; [9]): equally well
Binding of wild-type α2 I domain to shorter triple-helical Gxx'GEx'' peptides (A450) (wild-type α2 I domain [3]): bound well

GLKGEN
Change in binding of α2 I E318W compared with wild-type α2 I domain (α2 I E318W [2]): several-fold increases

GLOGEA
Binding of α2 I E318W to shorter triple-helical Gxx'GEx'' peptides (A450) (α2 I E318W [2]): bound well
Binding of wild-type α2 I domain to shorter triple-helical Gxx'GEx'' peptides (A450) (wild-type α2 I domain [3]): bound well

GLOGEN
Binding of α2 I E318W to shorter triple-helical Gxx'GEx'' peptides (A450) (α2 I E318W [2]; [8]): bound well
Binding of wild-type α2 I domain to shorter triple-helical Gxx'GEx'' peptides (A450) (wild-type α2 I domain [3]): bound well

GLOGER
Binding of α2 I E318W to shorter triple-helical Gxx'GEx'' peptides (A450) (α2 I E318W [2]; [8]): bound well
Binding of wild-type α2 I domain to shorter triple-helical Gxx'GEx'' peptides (A450) (wild-type α2 I domain [3]): bound well

GMOGER
Change in binding of α2 I E318W compared with wild-type α2 I domain (α2 I E318W [2]): doubling in amplitude
Change in binding of α2 I E318W compared with wild-type α2 I domain (α2 I E318W [2]; [9]): substantial increase
Change in affinity of E318W compared with wild-type, increasing dose of I domain (α2 I E318W [1]): substantially greater increase in affinity

GQRGER
Change in binding of α2 I E318W compared with wild-type α2 I domain (α2 I E318W [2]): several-fold increases

GROGER
Binding of α2 I E318W to shorter triple-helical Gxx'GEx'' peptides (A450) (α2 I E318W [2]): bound well
Binding of wild-type α2 I domain to shorter triple-helical Gxx'GEx'' peptides (A450) (wild-type α2 I domain [3]): bound well

GVOGEA [shorter triple-helical peptide with the α1β1-specific motif GVOGEA]
Binding of α2 I E318W to shorter triple-helical Gxx'GEx'' peptides (A450) (α2 I E318W [2]; [8]): not recognised
Binding of wild-type α2 I domain to shorter triple-helical Gxx'GEx'' peptides (A450) (wild-type α2 I domain [3]): not recognised

His-tagged integrin α2 I domain E318W (for SEC and crystallisation) (from UniProt P17301 171-368) (domain or fragment)
stoichiometry N (I domains per triple-helical peptide) [4]: 2

[GPO]2GFOGER[GPO]3 [GFOGER peptide, short homotrimeric collagen-like peptide [GPO]2GFOGER[GPO]3 used for SEC and crystallisation]
Reduction in elution volume of α2 I E318W on addition of peptide (α2 I E318W [5]; [10]): 1.4 mL
Complex formation with α2 I E318W in solution (I domain:peptide stoichiometry) (α2 I E318W [5]; [11]): appeared to form a 2:1 complex
Apparent mass of the α2 I E318W-peptide complex from calibration of the SEC column (α2 I E318W [5]; Superdex 200, 4°C (Fig. 3), calculated mass 56.1 kDa): 44 kDa
Reduction in elution volume of wild-type α2 I domain on addition of peptide (wild-type α2 I domain [6]; [10]): 0.6 mL
Complex formation with wild-type α2 I in solution (I domain:peptide stoichiometry) (wild-type α2 I domain [6]; [11]): formed a 1:1 complex
Apparent mass of the wild-type α2 I-peptide complex derived from the calibration of the SEC column (wild-type α2 I domain [6]; Superdex 200, 4°C (Fig. 3)): 31 kDa

wild-type integrin α2 I domain used in analytical SEC (domain or fragment)
stoichiometry N (I domain per triple-helical peptide) [4]: 1

B1: His-tagged integrin α2 I domain E318W (for SEC and crystallisation) (domain or fragment, human)
chain: SLIDVVVVCDESNSIYPWDAVKNFLEKFVQGLDIGPTKTQVGLIQYANNPRVVFNLNTYKTKEEMIVATSQTSQYGGDLTNTFGAIQYARKYAYSAASGGRRSATKVMVVVTDGESHDGSMLKAVIDQCNHDNILRFGIAVLGYLNRNALDTKNLIKEIKAIASIPTERYFFNVSDWAALLEKAGTLGEQIFSIEGTV
notes: also called α2 I E318W; E318W I domain; source: E. coli Origami, purified (HisTrap FF, SEC on Superdex 75)
stoichiometry N [7]: 1 I domain per triple-helical peptide
